# How the values were obtained:
# Format in all cases: cell-based
# [1] = tested on: Rift Valley fever virus (strain MP-12)
# [2] = tested on: Polio virus (strain Type 3, WM-3)
# [3] = tested on: Tacaribe virus (strain TRVL-11573)
# [4] = tested on: SARS corona virus (strain Urbani)
SMILES,activity against Rift valley fever virus (in words) [1],antiviral activity against Polio virus (in words) [2],activity against Takaribe virus (in words) [3],activity against Sars corona virus (in words) [4]
"CC(=NNc1ccc([N+](=O)[O-])cc1)C1=CC[C@H]2[C@@H]3CC[C@H]4C[C@@H](O)CC[C@]4(C)[C@H]3CC[C@]12C [Compound 12, 5′-preg-16-en-3β-ol-20-one p-nitrophenylhydrazone]",weakly active,moderate,–,–
"C[C@]12CC[C@H](OC(=O)Cc3ccccc3)C[C@@H]1CC[C@@H]1[C@@H]2CC[C@]2(C)C(=NNC(=O)c3cccnc3)CC[C@@H]12 [Compound 5, 3 β-Phenylacetoxy-5α-androstan-17-one Nicotinoylhydrazone]",weakly active,moderate,weak activity,weakly active
"C[C@]12CC[C@H](OC(=O)Cc3ccccc3)C[C@@H]1CC[C@@H]1[C@@H]2CC[C@]2(C)C(=NNC(=O)c3cccc([N+](=O)[O-])c3)CC[C@@H]12 [Compound 4, 3 β -Phenylacetoxy-5α-androstan-17-one m-nitrobenzoylhydrazone]",–,high,–,weakly active

# Source: paper PMC7087839 (Chemistry of Natural Compounds, 2018)
